From US20250368628A1, “METHODS AND COMPOUNDS FOR MODULATING INHERITED GENETIC DISEASES” (Design Therapeutics, Inc., priority 2022, published 2025)
Read-outs that look alike come from different tables or passages of the source.

What was measured:
F35T cells = experiment: Foci reduction in FECD (CAG10-Cy3 FISH, foci per nucleus); type: cell-based
Procedure, shortened: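 Foci per nucleus were counted by imaging after overnight CAG10-Cy3 FISH at 37 °C (30% formamide, 2×SSC) with DAPI counterstain, on PFA-fixed, ethanol-permeabilized F35T cells. The cells, seeded at 5000 per well in supplemented Opti-MEM, had received 8-point compound dilutions for 48 h at 37 °C.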

[1] = tested on: Myotonic Dystrophy 1 affected patient fibroblasts (Coriel GM04602; 1600 CTG repeats); experiment: DM1 foci reduction assay (EC50 assay; CAG10-Cy3 FISH, foci per nucleus); type: cell-based
Procedure, shortened: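 Foci per nucleus counted by 20× imaging of 4 areas per well, after overnight FISH with 5 nM CAG10-Cy3 and DAPI staining of fixed, permeabilized cells. DM1 fibroblasts (GM04602, 1600 CTG) were dosed 48 h at 37 °C, 8 points, 3-fold dilutions, 3 μM top concentration.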

[2] = F35T cells, 48 h treatment, foci per nucleus; read-out: FECD EC50, 48 h
[3] = Homo sapiens, Fibroblast; DM1 patient fibroblasts, 48 h treatment, foci per nucleus; read-out: DM1 EC50, 48 h

Compound	EC50 (F35T cells; [2]) [nM]	EC50 [1, 3] [nM]	EC50 (F35T cells; F35T cells, foci per nucleus, 48 h treatment; read-out: FECD EC50, 48 h) [nM]	EC50 ([1]; Homo sapiens, Fibroblast; DM1 patient fibroblasts, foci per nucleus, 48 h treatment; read-out: DM1 EC50, 48 h) [nM]
COCCOCCOCCOCCOCCOCCC(=O)NCCCCCCn1cc(NC(=O)c2nc(NC(=O)CCNC(=O)c3cc(NC(=O)c4nccn4C)cn3C)cn2C)cc1C(=O)NCCCC(=O)Nc1cn(C)c(C(=O)NCCC(=O)Nc2cc(C(=O)Nc3cn(C)c(C(=O)NCCC(=O)N4CCC(C#CC#CC5CCN(C(=O)OC(C)(C)C)CC5)CC4)n3)n(C)c2)n1 [Compound B-351]	< 100	> 1000		
CC(=O)NCCOCCOCCOCCOCCOCCNC(=O)CCNC(=O)c1nc(NC(=O)c2cc(NC(=O)CCNC(=O)c3nc(NC(=O)CCCNC(=O)c4cc(NC(=O)c5nc(NC(=O)CCNC(=O)c6cc(NC(C)c7nccn7C)cn6C)cn5C)cn4C)cn3C)cn2C)cn1C (stereo not shown) [Compound B-76]	100 to 500	100 to 500		
CC(C)CCC(=O)N1CCC(C#CC#CC2CCN(CCOCCOCCOCCNC(=O)CCNC(=O)c3nc(NC(=O)c4cc(NC(=O)CCNC(=O)c5nc(NC(=O)CCCNC(=O)c6cc(NC(=O)c7nc(NC(=O)CCNC(=O)c8cc(NC(=O)c9nccn9C)cn8C)cn7C)cn6C)cn5C)cn4C)cn3C)CC2)CC1 [Compound B-169]	100 to 500	100 to 500		
CCCNC(=O)CCNC(=O)c1nc(NC(=O)c2cc(NC(=O)CCNC(=O)c3nc(NC(=O)CCCNC(=O)c4cc(NC(=O)c5nc(NC(=O)CCNC(=O)c6cc(NC(=O)c7nccn7C)cn6C)cn5C)cn4CCCCNC(C)=O)cn3C)cn2C)cn1C [Compound B-282]	< 100	100 to 500		
CCCNC(=O)CCNC(=O)c1nc(NC(=O)CCNC(=O)c2cc(NC(=O)c3nc(NC(=O)CCCNC(=O)c4cc(NC(=O)c5nc(NC(=O)CCNC(=O)c6cc(NC(C)c7nccn7C)cn6C)cn5C)cn4C)cn3C)cn2C)cn1C (stereo not shown) [Compound B-74]	500 to 1000	> 1000		
Cn1cc(NC(=O)c2nc(NC(=O)CCNC(=O)c3cc(NC(=O)c4nccn4C)cn3C)cn2C)cc1C(=O)NCCCC(=O)Nc1cn(C)c(C(=O)NCCC(=O)Nc2cc(C(=O)Nc3cn(C)c(C(=O)NCCC(=O)N4CC(c5cnc(CNC(=O)OCc6ccccc6)[nH]5)C4)n3)n(C)c2)n1 [Compound B-68]	100 to 500	100 to 500		
CCCNC(=O)CCNC(=O)c1nc(NC(=O)c2cc(NC(=O)CCNC(=O)c3nc(NC(=O)[C@@H](CCNC(=O)c4cc(NC(=O)c5nc(NC(=O)CCNC(=O)c6cc(NC(=O)c7nccn7C)cn6C)cn5C)cn4C)NC(C)=O)cn3C)cn2C)cn1C [Compound B-5]	100 to 500	< 100		
COCCOCCOCCOCCN(CCCNC(=O)CCNC(=O)c1nc(NC(=O)c2cc(NC(=O)CCNC(=O)c3nc(NC(=O)CCCNC(=O)c4cc(NC(=O)c5nc(NC(=O)CCNC(=O)c6cc(NC(=O)c7nccn7C)cn6C)cn5C)cn4C)cn3C)cn2C)cn1C)CCOCCOCCOCCOC [Compound B-241]	100 to 500	100 to 500		
CCCNC(=O)CCNC(=O)c1nc(NC(=O)c2cc(NC(=O)CCNC(=O)c3nc(NC(=O)CCCNC(=O)c4cc(NC(=O)c5nc(NC(=O)CCNC(=O)c6cc(NC(=O)c7nccn7C)cn6C)cn5C)cn4CCN=[N+]=[N-])cn3C)cn2C)cn1C [Compound B-264]	< 100	< 100		
Cn1cc(NC(=O)c2nc(NC(=O)CCNC(=O)c3cc(NC(=O)c4nccn4C)cn3C)cn2C)cc1C(=O)NCCCC(=O)Nc1cn(C)c(C(=O)NCCC(=O)Nc2cc(C(=O)Nc3cn(C)c(C(=O)NCCC(N)=O)n3)n(C)c2)n1 [Compound B-307]	< 100	100 to 500		
CC(=O)NCCCCn1cc(NC(=O)c2nc(NC(=O)CCNC(=O)c3cc(NC(=O)c4nccn4C)cn3C)cn2C)cc1C(=O)NCCCC(=O)Nc1cn(C)c(C(=O)NCCC(=O)Nc2cc(C(=O)Nc3cn(C)c(C(=O)NCCC(=O)N4CCC(C#CC#CC5CCN(C(C)=O)CC5)CC4)n3)n(C)c2)n1 [Compound B-283]	< 100	500 to 1000		
CCOC(=O)CCNC(=O)c1nc(NC(=O)c2cc(NC(=O)CCNC(=O)c3nc(NC(=O)[C@@H](CCNC(=O)c4cc(NC(=O)c5nc(NC(=O)CCNC(=O)c6cc(NC(=O)c7nccn7C)cn6C)cn5C)cn4C)NC(C)=O)cn3C)cn2C)cn1C [Compound B-4]	100 to 500	100 to 500		
Cn1cc(NC(=O)c2nc(NC(=O)CCNC(=O)c3cc(NC(=O)c4nccn4C)cn3C)cn2C)cc1C(=O)NCCCC(=O)Nc1cn(C)c(C(=O)NCCC(=O)Nc2cc(C(=O)Nc3cn(C)c(C(=O)NCCCO)n3)n(C)c2)n1 [Compound B-105]	100 to 500	100 to 500		
Cn1cc(NC(=O)c2nc(NC(=O)CCNC(=O)c3cc(NC(=O)c4nccn4C)cn3C)cn2C)cc1C(=O)NCCCC(=O)Nc1cn(C)c(C(=O)NCCC(=O)Nc2cc(C(=O)Nc3cn(C)c(C(=O)NCCOCCOCCOCCN4CCC(C#CC#CC5CCNCC5)CC4)n3)n(C)c2)n1 [Compound B-107]	100 to 500	100 to 500		
CC(=O)N1CCC(C#CC#CC2CCN(CCOCCOCCOCCNC(=O)CCNC(=O)c3nc(NC(=O)c4cc(NC(=O)CCNC(=O)c5nc(NC(=O)CCCNC(=O)c6cc(NC(=O)c7nc(NC(=O)CCNC(=O)c8cc(NC(=O)c9nccn9C)cn8C)cn7C)cn6C)cn5C)cn4C)cn3C)CC2)CC1 [Compound B-121]	100 to 500	100 to 500		
Cn1cc(NC(=O)c2nc(NC(=O)CCNC(=O)c3cc(NC(=O)c4nccn4C)cn3C)cn2C)cc1C(=O)NCCCC(=O)Nc1cn(C)c(C(=O)NCCC(=O)Nc2cc(C(=O)Nc3cn(C)c(C(=O)NCCC(=O)N4CCC(N5CCNCC5)CC4)n3)n(C)c2)n1 [Compound B-31]	100 to 500	< 100		
CN(C)C(=NCCCNC(=O)CCNC(=O)c1nc(NC(=O)c2cc(NC(=O)CCNC(=O)c3nc(NC(=O)CCCNC(=O)c4cc(NC(=O)c5nc(NC(=O)CCNC(=O)c6cc(NC(=O)c7nccn7C)cn6C)cn5C)cn4C)cn3C)cn2C)cn1C)N(C)C [Compound B-72]	> 1000	500 to 1000		
CCCNC(=O)CCNC(=O)c1nc(NC(=O)c2cc(NC(=O)CCNC(=O)c3nc(NC(=O)CCCNC(=O)c4cc(NC(=O)c5nc(NC(=O)CCNC(=O)c6cc(NC(=O)c7nccn7C)cn6C)cn5C)cn4CCCOC(=O)c4ccccc4)cn3C)cn2C)cn1C [Compound B-432]			< 100	< 100
Cn1cc(NC(=O)c2nc(NC(=O)CCNC(=O)c3cc(NC(=O)c4nccn4C)cn3C)cn2C)cc1C(=O)NCCCC(=O)Nc1cn(C)c(C(=O)NCCC(=O)Nc2cc(C(=O)Nc3cn(C)c(C(=O)NCCCN(CC#Cc4ccc(C(=O)O)cc4)CCCN)n3)n(C)c2)n1 [Compound B-384]	100 to 500	100 to 500		
CC(=O)NCCn1cc(NC(=O)c2nc(NC(=O)CCNC(=O)c3cc(NC(=O)c4nccn4C)cn3C)cn2C)cc1C(=O)NCCCC(=O)Nc1cn(C)c(C(=O)NCCC(=O)Nc2cc(C(=O)Nc3cn(C)c(C(=O)NCCC(=O)N4CCC(C#CC#CC5CCNCC5)CC4)n3)n(C)c2)n1 [Compound B-270]	500 to 1000	> 1000		
